Experimental data: US20260242359A1, “IRHOM2 INHIBITORS AND USES THEREOF” (NEW YORK SOCIETY FOR THE RELIEF OF THE RUPTURED AND …, priority 2023, published 2026)

System: PMA-induced release of endogenous HB-EGF from human THP-1 macrophage cells
Assay: Example 15: ELISA-based HB-EGF release assay, PMA-induced, THP-1 macrophage cells
Assay type: cell-based
Conditions: THP-1, 10 μM final concentration, PMA 25 ng/ml, 23 hours, delta Buffer stimulated vs unstimulated = 100% inhibition, read-out: inhibition of PMA-induced release of HB-EGF from THP-1 cells
Experimental: In the following study, ELISA-based HB-EGF release assays were performed to analyze the inhibitory effects of Compounds 1, 2, 3, 4, 5, and 7 on PMA-induced release of endogenous HB-EGF from human THP-1 macrophage cells. The ELISA-based HB-EGF release assay that was used in this example is described below.
In brief, on day 1, Nunc black MaxiSorp® 96-well plates (Thermo Fisher Scientific, USA) were coated overnight with 100 μl per well of mouse anti-human HB-EGF capture antibody (provided as part of the DuoSet ELISA kit) at 2 μg/ml TBS at 4° C.
40,000 THP-1 cells (American Type Culture Collection, USA) cells in 80 μl of normal growth medium were seeded in each well of Greiner CELLSTAR V-bottom 96-well plates (Greiner Bio-One, Germany) and pre-incubated with 20 μl per well of standard growth medium supplemented with Batimastat (BB94, Abcam, UK) at 50 μM as positive control (for a final concentration of 10 μM in the resulting 100 μl sample volume), compounds of the invention at 50 μM (for a final concentration of 10 μM in the resulting 100 μl sample volume) and in case of Buffer stimulated and unstimulated controls with DMSO (Carl Roth, Germany) at 50 μM (for a final concentration of 10 μM in the resulting 100 μl sample volume) at 37° C., 5% CO2 for 30 minutes. Subsequently, cells (except those for unstimulated controls) were stimulated with 20 μl per well of PMA (Sigma-Aldrich, USA) at 150 ng/ml in growth medium for a final concentration of 25 ng/ml at 37° C., 5% CO2 for 23 hours.
On day 2, the capture antibody solution was removed and MaxiSorp® plates were blocked with 300 μl per well of TBS, 1% BSA at room temperature for 1-2 hours. Meanwhile, the 96-well plates were centrifuged to pellet cells. In parallel, blocking buffer was removed from the MaxiSorp® plates and plates were washed 4 times with 350 μl TBS-T (Carl Roth, Germany) per well on a 96-head plate washer (Tecan Group, Switzerland). To avoid drying-up, 30 μl TBS were added to each well of the MaxiSorp® plates immediately, followed by the transfer of 70 μl cell-free supernatant per sample. Additionally, 100 μl recombinant human HB-EGF protein (provided as part of the DuoSet ELISA kit) diluted in TBS at defined concentrations were added to the plate as standard references. Plates were incubated at room temperature for 2 hours. After 4 times washing with 350 μl TBS-T (Carl Roth, Germany) per well on a 96-head plate washer (Tecan Group, Switzerland) and careful removal of all buffer traces after the fourth cycle, 100 μl biotinylated goat anti-human HB-EGF detection antibody (provided as part of the DuoSet ELISA kit) at 50 ng/ml TBS were added per well and, protected from direct light, plates were incubated at room temperature for 2 hours.
After 4 times washing with 350 μl TBS-T (Carl Roth, Germany) per well on a 96-head plate washer (Tecan Group, Switzerland) and careful removal of all buffer traces after the fourth cycle, 100 μl streptavidin-AP (R&D Systems, USA) diluted 1:10,000 in TBS were added to each well and, again protected from direct light, plates were incubated at room temperature for 30 minutes. Following another round of 4 times washing with 350 μl TBS-T (Carl Roth, Germany) per well on a 96-head plate washer (Tecan Group, Switzerland) and careful removal of all buffer traces after the fourth cycle, 100 μl AttoPhos substrate solution (Promega, USA) per well was added for incubation in the dark at room temperature for 1 hour. Using an infinite M1000 (Tecan Group, Switzerland) microplate reader, the fluorescence of each well was collected at an excitation wavelength of 435 nm and an emission wavelength of 555 nm.
The delta between Buffer stimulated and Buffer unstimulated was defined 100% inhibition.

First: Cc1c(C(=O)NCc2cccs2)sc(=O)n1Cc1ccccc1F [Compound 5]
Second: Cc1c(C(=O)NCc2ccco2)sc(=O)n1Cc1ccccc1F [Compound 7]
The inhibition at 10 µM of the first is lower: 55.1% for the first, 95.1% for the second.

Going from Cc1c(C(=O)NCc2cccs2)sc(=O)n1Cc1ccccc1 [Compound 4] to CNC(=O)[C@H](Cc1ccccc1)NC(=O)[C@H](CC(C)C)[C@H](CSc1cccs1)C(=O)NO [Batimastat, reference compound], the inhibition at 10 µM rises from 62.5% to 99.2%.

Going from CCOC(=O)c1ccc(Nc2nc3nonc3n3nnnc23)cc1 [Compound 2] to O=C(c1c(Cl)cccc1Cl)N1CCC(Cc2ccc(F)cc2)CC1 [Compound 3], the inhibition at 10 µM falls from 77.5% to 29.6%.

Same assay, conditions: THP-1, 23 h, read-out: inhibition of PMA-induced release of HB-EGF from THP-1 cells

Compound CCC(=O)NCCc1c(/C=C2/C(=O)NC(=O)N(c3ccc(C)cc3C)C2=O)[nH]c2ccccc12 [Compound 1] has an inhibition at 10 µM of 95.4%.
